Results from US11046686B2, “Thiadiazole IRAK4 compounds” (Gilead Sciences, Inc., priority 2018, dated 2021).
Read-outs that look alike come from different tables or passages of the source.

What was measured:
TNFα = assay: IRAK4 Monocyte TNFα Cell Based Assay; set-up: species or system human
How it was run: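 Human monocytes (5,000/well) pretreated with compound 1 h at 37 °C (0.1% DMSO final), then stimulated with 50 pg/ml LPS for 4 h. Secreted TNFα measured by TR-FRET two-antibody detection after overnight incubation at room temperature; % control relative to unstimulated and LPS-stimulated wells.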

IRAK4 enzyme = IRAK4 enzyme (Homo sapiens (Human), UniProt Q9NWZ3); assay: IRAK4 Biochemical Assay (TR-FRET, STK1 KinEASE)
Chain of IRAK4 enzyme (Q9NWZ3 whole entry): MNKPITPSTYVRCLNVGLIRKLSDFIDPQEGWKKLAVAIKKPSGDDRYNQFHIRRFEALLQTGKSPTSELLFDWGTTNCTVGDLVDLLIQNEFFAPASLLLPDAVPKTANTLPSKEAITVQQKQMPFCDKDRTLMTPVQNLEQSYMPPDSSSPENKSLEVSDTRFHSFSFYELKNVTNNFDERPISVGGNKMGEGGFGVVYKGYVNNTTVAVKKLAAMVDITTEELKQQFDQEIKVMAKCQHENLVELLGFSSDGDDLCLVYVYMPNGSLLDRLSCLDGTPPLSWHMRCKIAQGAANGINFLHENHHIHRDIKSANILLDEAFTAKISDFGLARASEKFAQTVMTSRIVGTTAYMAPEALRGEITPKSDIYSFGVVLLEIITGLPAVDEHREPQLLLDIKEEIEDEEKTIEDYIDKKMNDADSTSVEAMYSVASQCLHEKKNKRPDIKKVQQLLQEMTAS
How it was run: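 IRAK4 (0.75 nM) preincubated 15 min with compound and […] STK1 peptide, then started with 500 μM ATP in HEPES pH 7.0 buffer with MgCl2, DTT, BSA, NP-40; 120 min at room temperature.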

[1] = Homo sapiens, Monocyte, human monocytes, LPS stimulated, compounds 1-32, read-out: EC50 TNF
[2] = compounds 1-32, read-out: IC50 HTRF
[3] = Homo sapiens, Monocyte, human monocytes, second part of Table 2, compounds 33-343, unit inferred, read-out: EC50 MONO TNF HTRF
[4] = Homo sapiens, Monocyte, read-out: EC50 MONO TNF HTRF
[5] = human monocytes, second part of Table 2, compounds 33-343, unit inferred, read-out: EC50 MONO TNF HTRF
[6] = second part of Table 2, compounds 33-343, unit inferred, read-out: IC50 IRAK4-HTBS

| Compound | EC50 (TNFα; [3]) [nM] | IC50 (IRAK4 enzyme) [nM] | also measured |
| --- | --- | --- | --- |
| CNc1cc(-c2ccc3cc(C#N)cnn23)ncc1-c1nnc([C@H]2CC[C@H](NC(C)=O)CC2)s1 [Example 22, N-((1r,4r)-4-(5-(6-(3-cyanopyrrolo[1,2-b]pyridazin-7-yl)-4-(methylamino)pyridin-3-yl)-1,3,4-thiadiazol-2-yl)cyclohexyl)acetamide] |  |  | EC50 (TNFα; [1]): 25 nM; IC50 (IRAK4 enzyme; [2]): < 1 nM |
| CC(C)Nc1cc(-c2ccc3cc(C#N)cnn23)ncc1-c1nnc(N2C[C@H]3C[C@@H]2CO3)s1 [Compound 237, 7-(5-(5-((1R,4R)-2-oxa-5-azabicyclo[2.2.1]heptan-5-yl)-1,3,4-thiadiazol-2-yl)-4-(isopropylamino)pyridin-2-yl)pyrrolo[1,2-b]pyridazine-3-carbonitrile] | 8.4 | 0.14 |  |
| CC1(O)CCN(c2nnc(-c3cnc(-c4ccc5cc(C#N)cnn45)cc3NC3CCOCC3)s2)CC1 [Example 188, 7-(5-(5-(4-hydroxy-4-methylpiperidin-1-yl)-1,3,4-thiadiazol-2-yl)-4-((tetrahydro-2H-pyran-4-yl)amino)pyridin-2-yl)pyrrolo[1,2-b]pyridazine-3-carbonitrile] | 7.6 | 1.07 |  |
| CC(C)Nc1cc(-c2ccc3cc(C#N)cnn23)ncc1-c1nnc(N2CCNCC2)s1 [Example 130, 7-(4-(isopropylamino)-5-(5-(piperazin-1-yl)-1,3,4-thiadiazol-2-yl)pyridin-2-yl)pyrrolo[1,2-b]pyridazine-3-carbonitrile] | 18.7 | 0.64 |  |
| CC(=O)NC[C@@H]1CCCN1C(=O)c1nnc(-c2cnc(-c3ccc4cc(C#N)cnn34)cc2NC(C)C)s1 [Example 41, (S)-N-((1-(5-(6-(3-cyanopyrrolo[1,2-b]pyridazin-7-yl)-4-(isopropylamino)pyridin-3-yl)-1,3,4-thiadiazole-2-carbonyl)pyrrolidin-2-yl)methyl)acetamide] | 11.6 | 1.38 |  |
| CC(C)Nc1cc(-c2ccc3cc(C#N)cnn23)ncc1-c1nnc(N2CC3CCC(C2)N3C(=O)C2CC2)s1 [Compound 263, 7-(5-(5-(8-(cyclopropanecarbonyl)-3,8-diazabicyclo[3.2.1]octan-3-yl)-1,3,4-thiadiazol-2-yl)-4-(isopropylamino)pyridin-2-yl)pyrrolo[1,2-b]pyridazine-3-carbonitrile] |  | 1.08 | EC50 (TNFα; [4]): 5.1 nM |
| CC(=O)N1C[C@H]2C[C@@H]1CN2c1nnc(-c2cnc(-c3ccc4cc(C#N)cnn34)cc2NC(C)C)s1 [Example 303, 7-(5-(5-((1R,4R)-5-acetyl-2,5-diazabicyclo[2.2.1]heptan-2-yl)-1,3,4-thiadiazol-2-yl)-4-(isopropylamino)pyridin-2-yl)pyrrolo[1,2-b]pyridazine-3-carbonitrile] | 12.5 | 0.51 |  |
| CC(C)Nc1cc(-c2ccc3cc(C#N)cnn23)ncc1-c1nnc(N2CC3CCCC(C3)C2)s1 [Example 295, 7-(5-(5-(3-azabicyclo[3.3.1]nonan-3-yl)-1,3,4-thiadiazol-2-yl)-4-(isopropylamino)pyridin-2-yl)pyrrolo[1,2-b]pyridazine-3-carbonitrile] | 1000 | 57.7 |  |
| CC(C)Nc1cc(-c2ccc3cc(C#N)cnn23)ncc1-c1nnc(N2CC3(COC3)C2)s1 [Compound 252, 7-(5-(5-(2-oxa-6-azaspiro[3.3]heptan-6-yl)-1,3,4-thiadiazol-2-yl)-4-(isopropylamino)pyridin-2-yl)pyrrolo[1,2-b]pyridazine-3-carbonitrile] | 7 | 0.29 |  |
| CC(=O)N[C@H]1CCN(c2nnc(-c3cnc(-c4ccc5cc(C#N)cnn45)cc3NC(C)C)s2)CC1(F)F [Example 169, (S)-N-(1-(5-(6-(3-cyanopyrrolo[1,2-b]pyridazin-7-yl)-4-(isopropylamino)pyridin-3-yl)-1,3,4-thiadiazol-2-yl)-3,3-difluoropiperidin-4-yl)acetamide] | 220 | 0.93 |  |
| CC(=O)NC1CN(c2nnc(-c3cnc(-c4ccc5cc(C#N)cnn45)cc3NC(C)C)s2)C1 [Example 33, N-(1-(5-(6-(3-cyanopyrrolo[1,2-b]pyridazin-7-yl)-4-(isopropylamino)pyridin-3-yl)-1,3,4-thiadiazol-2-yl)azetidin-3-yl)acetamide] | 3970 | 0.49 |  |
| CC(=O)NC12CCC(c3nnc(-c4cnc(-c5ccc6cc(C#N)cnn56)cc4NC(C)C)s3)(CC1)C2 [Example 284, N-(4-(5-(6-(3-cyanopyrrolo[1,2-b]pyridazin-7-yl)-4-(isopropylamino)pyridin-3-yl)-1,3,4-thiadiazol-2-yl)bicyclo[2.2.1]heptan-1-yl)acetamide] | 17.6 | 0.69 |  |
| CC(=O)NC12CCC(CC1)N(c1nnc(-c3cnc(-c4ccc5cc(C#N)cnn45)cc3NC(C)C)s1)C2 [Example 66, N-(2-(5-(6-(3-cyanopyrrolo[1,2-b]pyridazin-7-yl)-4-(isopropylamino)pyridin-3-yl)-1,3,4-thiadiazol-2-yl)-2-azabicyclo[2.2.2]octan-4-yl)acetamide] | 13.6 | 0.42 |  |
| CNC(=O)[C@@H]1CCCN1c1nnc(-c2cnc(-c3ccc4cc(C#N)cnn34)cc2NC2COC2)s1 [Compound 332] |  |  | EC50 (TNFα; [5]): 435 nM; IC50 (IRAK4 enzyme; [6]): 1.61 nM |
| CC(C)Nc1cc(-c2ccc3cc(C#N)cnn23)ncc1-c1nnc(C(=O)N2CC[C@H](CO)C2)s1 [Example 221, (S)-7-(5-(5-(3-(hydroxymethyl)pyrrolidine-1-carbonyl)-1,3,4-thiadiazol-2-yl)-4-(isopropylamino)pyridin-2-yl)pyrrolo[1,2-b]pyridazine-3-carbonitrile] | 2320 | 0.92 |  |
| CC(=O)NC12CC(c3nnc(-c4cnc(-c5ccc6cc(C#N)cnn56)cc4NC4CCOCC4)s3)(C1)C2 [Compound 270, N-(3-(5-(6-(3-cyanopyrrolo[1,2-b]pyridazin-7-yl)-4-((tetrahydro-2H-pyran-4-yl)amino)pyridin-3-yl)-1,3,4-thiadiazol-2-yl)bicyclo[1.1.1]pentan-1-yl)acetamide] | 10.7 | 0.65 |  |
| CC(=O)N[C@H]1CCN(c2nnc(-c3cnc(-c4ccc5cc(C#N)cnn45)cc3NC(C)C)s2)C[C@H]1O [Example 62, N-((3R,4S)-1-(5-(6-(3-cyanopyrrolo[1,2-b]pyridazin-7-yl)-4-(isopropylamino)pyridin-3-yl)-1,3,4-thiadiazol-2-yl)-3-hydroxypiperidin-4-yl)acetamide] | 12.5 | 0.38 |  |
| CC(C)Nc1cc(-c2ccc3cc(C#N)cnn23)ncc1-c1nnc([C@H]2C[C@@H]2C(C)(C)O)s1 (single isomer, unassigned; isomer 2) [132 Isomer 2] |  |  | EC50 (TNFα; [5]): 15.2 nM; IC50 (IRAK4 enzyme; [6]): 1.3 nM |
| CC(=O)NC1CCC2(CC1)CN(c1nnc(-c3cnc(-c4ccc5cc(C#N)cnn45)cc3NC3CCOCC3)s1)C2 [Example 79, N-(2-(5-(6-(3-cyanopyrrolo[1,2-b]pyridazin-7-yl)-4-((tetrahydro-2H-pyran-4-yl)amino)pyridin-3-yl)-1,3,4-thiadiazol-2-yl)-2-azaspiro[3.5]nonan-7-yl)acetamide] | 2.6 | 0.48 |  |
| (S)-7-(5-(5-(2-(aminomethyl)pyrrolidine-1-carbonyl)-1,3,4-thiadiazol-2-yl)-4-(isopropylamino)pyridin-2-yl)pyrrolo[1,2-b]pyridazine-3-carbonitrile [Compound 242] |  |  | EC50 (TNFα; [5]): 752 nM; IC50 (IRAK4 enzyme; [6]): 2.76 nM |
| CC(C)Nc1cc(-c2ccc3cc(C#N)cnn23)ncc1-c1nnc(NCC(C)(C)O)s1 [Example 37, 7-(5-(5-((2-hydroxy-2-methylpropyl)amino)-1,3,4-thiadiazol-2-yl)-4-(isopropylamino)pyridin-2-yl)pyrrolo[1,2-b]pyridazine-3-carbonitrile] | 10000 | 1000 |  |
| CC(=O)N[C@H]1CC[C@H](c2nnc(-c3cnc(-c4ccc5cc(C#N)cnn45)cc3NCC#N)s2)CC1 [Example 20, N-((1r,4r)-4-(5-(4-((cyanomethyl)amino)-6-(3-cyanopyrrolo[1,2-b]pyridazin-7-yl)pyridin-3-yl)-1,3,4-thiadiazol-2-yl)cyclohexyl)acetamide] |  |  | EC50 (TNFα; [1]): 6 nM; IC50 (IRAK4 enzyme; [2]): < 1 nM |
| N#Cc1cnn2c(-c3cc(NC4CCOCC4)c(-c4nnc(C56CCC(N)(CC5)CC6)s4)cn3)ccc2c1 [Example 336, 7-(5-(5-(4-aminobicyclo[2.2.2]octan-1-yl)-1,3,4-thiadiazol-2-yl)-4-((tetrahydro-2H-pyran-4-yl)amino)pyridin-2-yl)pyrrolo[1,2-b]pyridazine-3-carbonitrile] |  | 0.7 | EC50 (TNFα; [4]): 11 nM |
| CC(=O)N[C@@H]1CCN(c2nnc(-c3cnc(-c4ccc5cc(C#N)cnn45)cc3NC3COC3)s2)CC1(F)F [Example 183, (R)-N-(1-(5-(6-(3-cyanopyrrolo[1,2-b]pyridazin-7-yl)-4-(oxetan-3-ylamino)pyridin-3-yl)-1,3,4-thiadiazol-2-yl)-3,3-difluoropiperidin-4-yl)acetamide] | 8.8 | 0.5 |  |
| CC(C)Nc1cc(-c2ccc3cc(C#N)cnn23)ncc1-c1nnc(N2CCS(=O)(=O)CC2)s1 [Compound 257, 7-(5-(5-(1,1-dioxidothiomorpholino)-1,3,4-thiadiazol-2-yl)-4-(isopropylamino)pyridin-2-yl)pyrrolo[1,2-b]pyridazine-3-carbonitrile] | 10000 | 0.95 |  |
